The source of these data is US20170066797A1, “WITHAFERIN A ANALOGS AND USES THEREOF” (Whitehead Institute for Biomedical Research, priority 2008, published 2017).

For one assay, the target named is T1, Annexin 2 (Homo sapiens, UniProt P07355).
T1 construct: incubated with pre-cleared whole cell extract that had been previously supplemented with WA (40 μM) or an equal volume of DMSO; endogenous in cells
Kind of assay: Pull-down with biotinylated withaferin A on NeutrAvidin beads with competition. To be noted: competition with WA 40 μM, 36 kDa band, FIG. 11. The assay is classed as binding. How it is done:
FIG. 11. Stable and specific binding of Annexin 2 by withaferin A. Biotinylated withaferin A (WA) was captured on NeutrAvidin (NA)-coated beads and incubated with pre-cleared whole cell extract that had been previously supplemented with WA (40 μM) or an equal volume of DMSO. After low stringency washes, proteins bound to beads were eluted, size fractioned by SDS-PAGE, stained with Sypro Ruby, and visualized by UV illumination. The arrowhead indicates the position of a 36 kDa band effectively competed away by WA. Pre-clear lane: Proteins in whole cell extract that bound non-specifically to NA beads alone (no immobilized WA present) during pre-clearing incubation.

The subject of assay [1] is rat spinal cord motor neurons. Kind of assay: Neurotrophic factor (BDNF) deprivation-induced apoptosis of spinal cord motor neurons. To be noted: for reduction in cell death of motor neurons plated in the absence of BDNF: 24 hours, calcein-A. The format is cell-based. The method, then:
FIGS. 12A-12D. Neuronal survival and increase in neurite length as assessed by calcein-A staining which is taken up by viable neurons. (A) In the absence of BDNF (−BDNF) there is approximately 40% reduction in viable motor neurons compared to wells with BDNF present (+BDNF). Addition of withaferin A (WA) to the motor neuron cultures plated in the absence of BDNF results in a 50% reduction in cell death at 200 nM (0.2 μM) concentration of WA and a 75% reduction in cell death at 400 nM (0.4 μM) as assessed after 24 hours. […] (B) Graph showing percent protection. (C) Motor neuron viability assay of WA. (D) WA increases neurite length (normalized to control) measured at the end of the experiment.
Neurotrophic factor deprivation-induced apoptosis of rat spinal cord motor neurons was used as a model system to evaluate neuroprotective activity of withaferin A. Primary spinal cord motor neurons were purified from E15 rats. These cells were dissociated from the ventral spinal cord, enriched by density gradient centrifugation, and purified by magnetic bead cell separation using an antibody against p75NTR which is expressed on the cell surface of motor neurons at this developmental age. The resulting cultures are ˜96% motor neurons as assessed by HB9 or islet-1 immunoreactivity and are virtually devoid of astrocytes or microglia. For viability experiments, the cells were plated at a low density (500 cells/well of a 96-well plate). In these cultures, motor neuron survival is highly dependent on trophic factors added to the culture media (in the form of BDNF, GDNF, or cardiotrophin-1), as ˜50% of the attached cells will undergo apoptosis when deprived of trophic factors (Oppenheim, R. W., et al., Nature, 360: 755-757; Henderson, C. E., et al., Science, 266: 1062-1064, 1994). BDNF was used as the trophic factor.
Neuronal survival was assessed by staining with calcein-A, a fluorescent dye that is taken up by viable neurons. […]
In some experiments, a fluorescence image of the entire well within a plate was captured using a flash cytometer (Trophos). […]

The subject of assay [2] is primary astrocytes / primary neurons co-culture. The assay is described as follows: Glutathione depletion astrocyte-neuron co-culture model (HCA, MAP-2 readout). The assay is classed as cell-based, rat. To be noted: astrocytes pre-treated 24 h, then 5 mM homocysteic acid 48 h, FIG. 14. How it is done: FIGS. 14A and 14B. (A) Withaferin A (WA) mediates astrocyte-dependent neuronal protection. Primary astrocytes cultured from the cerebral cortices of postnatal rat pups, were treated with WA for 24 h, and were washed with serum-containing media to completely remove WA from the culture media. […] 48 h later neuronal viability was assessed by quantifying the neuronal marker MAP-2. (B) WA-mediated neuroprotection from oxidative stress.
WA was tested in a second model for neuroprotection that utilizes primary astrocytes cultured from the cerebral cortices of postnatal day 1-3 rat pups. In the CNS, astrocytes play a pivotal role in protecting neurons from oxidative stress, a hallmark of nearly all neurodegenerative diseases and disorders. […]
In this assay, which is summarized in FIG. 13, primary astrocytes were isolated from the cerebral cortices of postnatal day 1-3 rat pups, allowed to grow to confluency for ˜2 weeks, and then treated with test compound for 24 h. […] Quantification of the neuron-specific protein microtubule-associated protein-2 (MAP-2) is used to monitor neuronal specific death in this astrocyte-neuron co-culture model as described previously (Carrier et al., J. Neuroscience Methods, 154: 239-244.2006). […] HRP activity is then measured using a reaction buffer containing 150 uM amplex red (Molecular Probes) and 800 uM hydrogen peroxide (Sigma). […]

T1 sequence (P07355 whole entry, species assumed): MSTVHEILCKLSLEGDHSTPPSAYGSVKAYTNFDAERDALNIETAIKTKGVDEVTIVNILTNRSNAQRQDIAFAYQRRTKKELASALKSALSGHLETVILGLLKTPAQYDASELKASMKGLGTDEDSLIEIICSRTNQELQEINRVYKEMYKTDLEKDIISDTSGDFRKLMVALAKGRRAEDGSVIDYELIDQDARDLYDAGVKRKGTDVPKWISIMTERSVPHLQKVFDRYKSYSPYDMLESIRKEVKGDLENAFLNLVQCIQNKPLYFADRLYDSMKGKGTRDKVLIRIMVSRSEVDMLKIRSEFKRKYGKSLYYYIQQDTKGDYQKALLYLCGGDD

As for `CC1=C(CO)C(=O)OC([C@@H](C)C2CCC3C4C[C@H]5O[C@]56[C@@H](O)C=CC(=O)[C@]6(C)C4CC[C@@]32C)C1` (some centres unmarked) [Withaferin A], at Annexin 2, the “binding to annexin II” value is “binds stably and selectively to annexin II”. Also, the “reduction in cell death of motor neurons plated in the absence of BDNF” value was 50% in assay [1] (200 nM (0.2 μM)) and 75% in assay [1] (400 nM (0.4 μM)). Further, in assay [1] (FIG. 12D), the “neurite growth of motor neurons” value was “induces the growth of neurites”. Moreover, the “astrocyte-dependent protection of neurons from oxidative stress (MAP-2)” value in assay [2] is “enhance the protection of neurons exposed to oxidative stress”.
